Test results: patent publication US9253987B2, “Antimicrobial agents and methods of use” (Hyprotek, Inc., priority 2010, dated 2016)

Tested on: leukoplakia lesions within the oral cavity displaying invasive squamous cell carcinoma
Assay: Topical treatment of oral leukoplakia / squamous cell carcinoma lesion in a human subject
Format: in vivo
Conditions: same human subject, before the antimicrobial agent
Description: In addition to the being diagnosed with chronic periodontitis, the subject developed leukoplakia lesions within the oral cavity displaying invasive squamous cell carcinoma with surrounding carcinoma-in-situ and dysplasia in the right mandibular gingival area. Visual inspection of the lesions appeared as white, translucent patches. […] Previously, the subject's dentists had attempted to treat the chronic periodontitis and leukoplakia with a succession of oral antibiotics, antifungal fluconazole and prolonged courses of chlorhexidine oral rinses, in addition to vigorous dental hygiene.
A single topical application of the antimicrobial agent of the present application in solution form was applied to the right lower mandibular gingival area while the right upper mandibular gingival area remained untreated. Visual inspection of the antimicrobial agent-treated area produced noticeable reduction in both the size and severity of the lesion within approximately 10 hours. Continued daily or twice-daily applications of the antimicrobial agent solution to the right lower mandibular gingival area over 12 days were effective to further reduce the lesion to approximately 1 mm. […] In contrast, the pathology of the untreated right upper mandibular gingival area continued to display signs of invasive squamous cell carcinoma and was only finally removed by surgery post treatment.

| Structure (SMILES) | outcome of previous therapy of chronic periodontitis and leukoplakia |
| --- | --- |
| OC(Cn1cncn1)(Cn1cncn1)c1ccc(F)cc1F [fluconazole] | failed significantly to improve their condition |
| [H]/N=C(\N/C(=N/[H])NCCCCCCNC(=N)NC(=N)Nc1ccc(Cl)cc1)Nc1ccc(Cl)cc1 [chlorhexidine] | failed significantly to improve their condition |
